Drawing on patent US20050256181A1, “Treating a viral disorder” (ELIXIR PHARMACEUTICALS, INC., priority 2004, published 2005), this text covers IC50 for eight compounds.

The term IC50 denotes the concentration that inhibits the measured activity by half. Low readings indicate inhibition by little substance, high ones a need for much substance.

The target in the test is T1, SirT1 (Homo sapiens, UniProt Q96EB6).
T1 sequence (Q96EB6 1-747): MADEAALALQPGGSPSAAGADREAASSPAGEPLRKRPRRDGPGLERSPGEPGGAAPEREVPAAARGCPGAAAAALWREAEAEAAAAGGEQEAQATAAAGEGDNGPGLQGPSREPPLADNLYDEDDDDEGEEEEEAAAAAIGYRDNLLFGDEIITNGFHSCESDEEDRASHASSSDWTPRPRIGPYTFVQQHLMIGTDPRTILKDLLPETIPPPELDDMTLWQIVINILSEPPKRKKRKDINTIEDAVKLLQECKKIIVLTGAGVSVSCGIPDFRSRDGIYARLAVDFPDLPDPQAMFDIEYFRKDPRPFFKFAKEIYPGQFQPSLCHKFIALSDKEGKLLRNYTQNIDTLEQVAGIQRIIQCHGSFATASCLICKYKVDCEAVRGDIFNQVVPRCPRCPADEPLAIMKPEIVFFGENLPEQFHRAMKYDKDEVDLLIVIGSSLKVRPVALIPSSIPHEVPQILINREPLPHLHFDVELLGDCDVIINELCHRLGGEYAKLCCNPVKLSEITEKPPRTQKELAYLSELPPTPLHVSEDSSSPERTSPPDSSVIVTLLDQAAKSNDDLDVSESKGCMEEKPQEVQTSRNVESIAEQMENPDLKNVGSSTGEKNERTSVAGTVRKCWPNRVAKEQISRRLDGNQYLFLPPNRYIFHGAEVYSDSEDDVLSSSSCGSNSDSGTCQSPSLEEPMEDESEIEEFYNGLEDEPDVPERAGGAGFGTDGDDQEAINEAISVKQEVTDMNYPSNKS
Nature of the test: SirT1 p53-382 enzymatic deacetylation assay (fluorogenic Fluor-de-Lys principle). The format is biochemical. From the text: An exemplary assay method includes a 1536 well format of the SirT1 enzymatic assay that is based on the commercial “Fluor-de-Lys” assay principle by Biomol, which is fluorogenic (www.biomol.com/store/Product_Data_PDFs/ak500.pdf). In this assay, deacetylation of the e-amino function of a lysyl residue is coupled to a fluorogenic “development step that is dependent on the unblocked e-amino functionality and generates fluorescent aminomethylcoumarin. Fluorescence can be read on a commercial macroscopic reader.

`NC(=O)C1Cc2c([nH]c3ccccc23)CN1` (centres unmarked) [Compound 2, 2,3,4,9-Tetrahydro-1H-b-carboline-3-carboxylic acid amide]: the half-maximal inhibitory concentration (IC50) is > 10 µM.
The value for `NC(=O)C1CCc2c([nH]c3ccc(OC(F)(F)F)cc23)C1` (centres unmarked) [Compound 13, 6-Trifluoromethoxy-2,3,4,9-tetrahydro-1H-carbazole-2-carboxylic acid amide] was > 10 µM.
On to `Cc1ccc2[nH]c3c(c2c1)CCCC3(C)C(N)=O` (centres unmarked) [Compound 12, 1,6-Dimethyl-2,3,4,9-tetrahydro-1H-carbazole-1-carboxylic acid amide], for which the IC50 was > 10 µM.
In the case of `NC(=O)C1CCc2c([nH]c3ccc(Cl)cc23)C1` (centres unmarked) [Compound 9, 6-Chloro-2,3,4,9-tetrahydro-1H-carbazole-2-carboxylic acid amide] it was > 10 µM; in that of `NC(=O)C1CCc2c1[nH]c1ccc(Cl)cc21` (centres unmarked) [Compound 1, 7-Chloro-1,2,3,4-tetrahydro-cyclopenta[b]indole-3-carboxylic acid amide], < 1 µM; in that of `NC(=O)C1CCc2c1[nH]c1ccccc21` (centres unmarked) [Compound 10, 1,2,3,4-Tetrahydro-cyclopenta[b]indole-3-carboxylic acid amide], 1 to 10 µM.
The value for `O=C(Nc1ccc(Cl)cn1)C1CCCc2c1[nH]c1ccc(Cl)cc21` (centres unmarked) [Compound 11, 6-Chloro-2,3,4,9-tetrahydro-1H-carbazole-1-carboxylic acid (5-chloro-pyridin-2-yl)-amide] was 1 to 10 µM; that for `NC(=O)C1CCc2c([nH]c3ccc(Br)cc23)C1` (centres unmarked) [Compound 3, 6-Bromo-2,3,4,9-tetrahydro-1H-carbazole-2-carboxylic acid amide] was 1 to 10 µM.
